Experimental data published in publication PMC12282258, “Understanding the substrate recognition and catalytic mechanism of 2-O-methyl fucosidases from glycoside hydrolase family 139” (The Journal of Biological Chemistry, 2025).

Molecular target: T1, BT0984^GH139 (Bacteroides thetaiotaomicron, UniProt Q8A933)
T1 construct: gene BT_0984; full-length gene in pET28a (NheI/XhoI), N-terminal His6 tag, expressed in E. coli BL21(DE3) or TUNER; cobalt IMAC purified
T1 sequence (Q8A933 1-803): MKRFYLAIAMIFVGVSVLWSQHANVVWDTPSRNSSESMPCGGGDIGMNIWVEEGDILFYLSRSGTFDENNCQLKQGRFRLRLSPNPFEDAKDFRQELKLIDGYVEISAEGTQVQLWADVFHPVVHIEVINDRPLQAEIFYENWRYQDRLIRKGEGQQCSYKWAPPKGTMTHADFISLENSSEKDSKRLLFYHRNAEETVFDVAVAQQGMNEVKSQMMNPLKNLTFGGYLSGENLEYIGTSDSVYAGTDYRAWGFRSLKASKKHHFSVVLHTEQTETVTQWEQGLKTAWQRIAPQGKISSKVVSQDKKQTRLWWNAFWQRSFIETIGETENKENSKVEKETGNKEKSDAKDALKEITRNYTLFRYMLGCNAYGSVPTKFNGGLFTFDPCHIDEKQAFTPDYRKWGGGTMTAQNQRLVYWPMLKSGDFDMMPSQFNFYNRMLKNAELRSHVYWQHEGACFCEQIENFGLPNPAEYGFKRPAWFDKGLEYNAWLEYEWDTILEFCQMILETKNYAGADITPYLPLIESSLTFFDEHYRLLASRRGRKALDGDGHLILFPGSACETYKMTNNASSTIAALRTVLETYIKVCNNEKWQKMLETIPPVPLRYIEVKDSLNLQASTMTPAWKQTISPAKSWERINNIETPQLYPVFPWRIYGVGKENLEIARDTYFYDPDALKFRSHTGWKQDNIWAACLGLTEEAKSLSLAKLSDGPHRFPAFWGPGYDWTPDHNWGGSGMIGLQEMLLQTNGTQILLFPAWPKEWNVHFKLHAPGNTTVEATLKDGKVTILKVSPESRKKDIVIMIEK
Test: thin layer chromatography
Assay type: biochemical
Settings: 1 μM enzyme, 10 mM MOPS pH 7.0, 150 mM NaCl, 37 °C; slow

Question: CO[C@@H]1[C@H](Oc2ccc([N+](=O)[O-])cc2)O[C@@H](C)[C@@H](O)[C@H]1O [4NP-MeFuc, 4-nitrophenyl-2-O-methyl-α-L-fucopyranoside] was tested. Which thin layer chromatography did it give?
Answer: The thin layer chromatography was “displayed activity on 4-nitrophenyl 2-O-methyl-α-L-fucoside (4NP-MeFuc)”.
